≈ marks a conversion by molar mass, not a printed value. Structures can show the parent of a compound that is named as a salt.
Columns and labels:
[1] = tested on: Pseudomonas aeruginosa; test: microbe, parasite or virus in culture; conditions: ATCC 27853, 18 h, ASSAY_TEST Inhibition of Bacterial Growth, detection method Absorption (OD600), MEDIA CAMHB, plate type 384well, NBS, CORNING #3640
Description: Antibacterial activity against Pseudomonas aeruginosa ATCC 27853 (CO-ADD:GN_042); MIC in CAMBH media using NBS plates, by OD(600)

[2] = tested on: Cryptococcus neoformans
Description: Antifungal activity against Cryptococcus neoformans H99 ATCC 208821 (CO-ADD:FG_002); MIC in YNB media using NBS plates, by Resazurin OD(600-570)

[3] = tested on: HEK293; test: cells; format: functional; conditions: Homo sapiens, ATCC CRL1573, HEK293; ASSAY_TEST Inhibition of Cell Viability; detection method Resazurin; Fluorescence (ex560/em590); MEDIA DMEM with 10% FBS; plate type 384well; TC; CORNING #3712; time 18 hr
[4] = tested on: Klebsiella pneumoniae; test: microbe, parasite or virus in culture; conditions: ATCC 700603, 18 h, ASSAY_TEST Inhibition of Bacterial Growth, detection method Absorption (OD600), MEDIA CAMHB, plate type 384well, NBS, CORNING #3640
Description: Antibacterial activity against Klebsiella pneumoniae MDR ATCC 70063 (CO-ADD:GN_003); MIC in CAMBH media using NBS plates, by OD(600)

[5] = tested on: Acinetobacter baumannii; test: microbe, parasite or virus in culture; conditions: ATCC 19606, 18 h, ASSAY_TEST Inhibition of Bacterial Growth, detection method Absorption (OD600), MEDIA CAMHB, plate type 384well, NBS, CORNING #3640
Description: Antibacterial activity against Acinetobacter baumannii ATCC 19606 (CO-ADD:GN_034); MIC in CAMBH media using NBS plates, by OD600

[6] = tested on: Staphylococcus aureus; test: microbe, parasite or virus in culture; conditions: ATCC 43300, 18 h, ASSAY_TEST Inhibition of Bacterial Growth, detection method Absorption (OD600), MEDIA CAMHB, plate type 384well, NBS, CORNING #3640
Description: Antibacterial activity against Staphylococcus aureus MRSA ATCC 43300 (CO-ADD:GP_020); MIC in CAMBH media, using NBS plates, by OD(600)

[7] = tested on: Candida albicans; test: microbe, parasite or virus in culture; conditions: ATCC 90028, ASSAY_TEST Inhibition of Fungal Growth, detection method Absorption (OD530), plate type 384well, NBS, CORNING #3640
Description: Antifungal activity against Candida albicans ATCC 90028 (CO-ADD:FG_001); MIC in YNB media using NBS plates, by OD630

[8] = tested on: Escherichia coli; test: microbe, parasite or virus in culture; conditions: ATCC 25922, 18 h, ASSAY_TEST Inhibition of Bacterial Growth, detection method Absorption (OD600), MEDIA CAMHB, plate type 384well, NBS, CORNING #3640
Description: Antibacterial activity against Escherichia coli ATCC 25922 (CO-ADD:GN_001); MIC in CAMBH media using NBS plates, by OD(600)

Row | Compound | MIC [1] [µM] | MIC [2] [µM] | CC50 [3] [µM] | MIC [4] [µM] | MIC [5] [µM] | MIC [6] [µM] | MIC [7] [µM] | MIC [8] [µM]
1 | N#Cc1cn(C2OC(CO)C(O)C2O)c2ncnc(N)c12 (centres undefined) | > 10 | > 10 | > 10 | > 10 | > 10 | > 10 | 0.312 (≈ 0.091 µg/mL) | > 10
2 | O=c1ccc2nc3ccc(O)cc3oc-2c1 | > 10 | > 10 | > 10 | > 10 | > 10 | > 10 | > 10 | > 10
3 | COc1cccc2c1C(=O)c1c(O)c3c(c(O)c1C2=O)C[C@@](O)(C(C)=O)C[C@@H]3OC1CC(N)C(O)C(C)O1 (some centres undefined) | > 10 | > 10 | 0.613 | > 10 | > 10 | 5 (≈ 2.64 µg/mL) | > 10 | > 10
4 | CC1Oc2cc3c(-c4c(O)cc(O)c5c(O)c6c(cc45)OC(C)C(C)C6=O)c(O)cc(O)c3c(O)c2C(=O)C1C (centres undefined) | > 10 | > 10 | 5.78 | > 10 | > 10 | 5 (≈ 2.73 µg/mL) | > 10 | > 10
5 | COC1=C2C[C@@H](C)C[C@@H](OC)[C@@H](O)[C@H](C)/C=C(\C)[C@@H](OC(N)=O)[C@H](OC)/C=C\C=C(/C)C(=O)NC(=CC1=O)C2=O | > 10 | > 10 | > 10 | > 10 | > 10 | > 10 | > 10 | > 10
6 | CC[C@H](C)c1occ2c(O)c(C(=O)O)c(=O)cc-2c1C | > 10 | > 10 | > 10 | > 10 | > 10 | > 10 | > 10 | > 10
7 | C=C(NC(=O)C(=C)NC(=O)c1csc(C2=NC3c4csc(n4)C4NC(=O)c5csc(n5)C(C(C)(O)C(C)O)NC(=O)C5CSC(=N5)/C(=C/C)NC(=O)C(C(C)O)NC(=O)c5csc(n5)C3(CC2)NC(=O)C(C)NC(=O)C(=C)NC(=O)C(=C)NC(=O)C(C(C)C)NC2C=Cc3c(C(C)O)cc(nc3C2O)C(=O)OC4C)n1)C(N)=O (centres undefined) | > 10 | > 10 | > 10 | > 10 | > 10 | ≤ 0.0781 | > 10 | > 10
8 | COc1cc(C)cc2c(-c3c(O)cc(O)c4c3C[C@H](C)N[C@H]4C)cc(-c3cc(-c4c(O)cc(O)c5c4C[C@H](C)N[C@H]5C)c4cc(C)cc(OC)c4c3O)c(O)c12 | > 10 | > 10 | > 10 | > 10 | > 10 | > 10 | > 10 | > 10
9 | CC1COC2C3=C(C(=O)C=CC3=O)C3OC(=O)C4CC5CCC1C5C2C43 (centres undefined) | – | – | 1.18 | – | – | – | – | –
10 | CC1/C=C/C=C/CC/C=C/C=C/C=C/C=C/C(OC2OC(C)C(O)C(N)C2O)CC2OC(CC(O)C(O)CCC(O)CC(O)CC(O)CC(=O)OC(C)C(C)C1O)CC(O)C2C(=O)O (centres undefined) | > 10 | 5 (≈ 4.55 µg/mL) | > 10 | > 10 | > 10 | > 10 | 5 (≈ 4.55 µg/mL) | > 10
11 | CC(=O)C(=O)NC1/C=C(C)\C=C/C(O)C/C=C(C)\C=C/C(O)CC2OC(=O)C1(C)C(=O)C2C (centres undefined) | > 10 | > 10 | > 10 | > 10 | > 10 | 10 (≈ 4.6 µg/mL) | > 10 | > 10
12 | CO[C@H](/C(C)=C/C=C/C(C)=C/c1coc(C)n1)[C@H](C)[C@H]1C[C@@H](O)[C@@]2(C)O[C@H]2/C=C/[C@@H](C)[C@@H]2C[C@@H](CC(=O)O2)C[C@H]2O[C@@H]2C(=O)O1 | > 10 | 1.25 (≈ 0.782 µg/mL) | > 10 | > 10 | > 10 | > 10 | > 10 | > 10
13 | COc1cc2oc3cc(=O)cc4oc(-c5ccccc5)cc(c2c2c1CCC(c1ccccc1)O2)c43 (centres undefined) | > 10 | > 10 | > 10 | > 10 | > 10 | > 10 | > 10 | > 10
14 | COC1CC(CC2CCC(C)C(C(C)C(=O)O)O2)OC2(OC(C)(C3CCC(C)(C4OC(C5OC(O)(CO)C(C)CC5C)CC4C)O3)CC2C)C1C (centres undefined) | > 10 | > 10 | > 10 | > 10 | > 10 | 0.156 (≈ 0.113 µg/mL) | 10 (≈ 7.25 µg/mL) | > 10
15 | N#C[C@H](OC1OC(COC2OC(CO)C(O)C(O)C2O)C(O)C(O)C1O)c1ccccc1 (some centres undefined) | > 10 | > 10 | > 10 | > 10 | > 10 | > 10 | > 10 | > 10
16 | CSC1SCC2C(=O)N(C)C(C(C)C)C(=O)OCC(NC(=O)c3cnc4ccccc4n3)C(=O)NC(C)C(=O)N(C)C1C(=O)N(C)C(C(C)C)C(=O)OCC(NC(=O)c1cnc3ccccc3n1)C(=O)NC(C)C(=O)N2C (centres undefined) | 1.25 (≈ 1.38 µg/mL) | 2.5 (≈ 2.75 µg/mL) | > 10 | > 10 | > 10 | ≤ 0.0781 | > 10 | 2.5 (≈ 2.75 µg/mL)
17 | COC1/C=C/O[C@@]2(C)Oc3c(C)c(O)c4c(O)c(cc(O)c4c3C2=O)NC(=O)/C(C)=C\C=C\[C@H](C)C(O)[C@@H](C)[C@@H](O)[C@@H](C)[C@H](OC(C)=O)[C@@H]1C (some centres undefined) | > 10 | > 10 | > 10 | > 10 | > 10 | ≤ 0.0781 | > 10 | > 10
18 | CC1OC(=O)C(C(C)C)NC(=O)C(C(C)C)OC(=O)C(C(C)C)NC(=O)C(C)OC(=O)C(C(C)C)NC(=O)C(C(C)C)OC(=O)C(C(C)C)NC(=O)C(C)OC(=O)C(C(C)C)NC(=O)C(C(C)C)OC(=O)C(C(C)C)NC1=O (centres undefined) | > 10 | > 10 | > 10 | > 10 | > 10 | > 10 | 0.625 (≈ 0.695 µg/mL) | > 10
19 | CCC(C(=O)C(C)C(O)C(C)CCc1ccc(C)c(O)c1C(=O)O)C1OC(CC)(C2CCC(O)(CC)C(C)O2)CC1C (centres undefined) | > 10 | > 10 | > 10 | > 10 | > 10 | 0.312 (≈ 0.185 µg/mL) | > 10 | > 10
20 | C[C@H](N)C(=O)N[C@@H]1[C@H]2C(=C(O)C[C@@H](O)[C@@H]2O)C(=O)O[C@]1(C)C(Cl)Cl [BACTOBOLIN] | > 10 | > 10 | 0.396 | > 10 | > 10 | 1.25 (≈ 0.479 µg/mL) | > 10 | 5 (≈ 1.92 µg/mL)
21 | CN(C)[C@@H]1C(O)=C(C(N)=O)C(=O)[C@@]2(O)C(O)=C3C(=O)c4c(O)ccc(Cl)c4[C@@](C)(O)[C@H]3C[C@@H]12 [CHLORTETRACYCLINE HYDROCHLORIDE] | 2.5 | > 10 | > 10 | > 10 | > 10 | 1.25 | > 10 | 5
22 | Cc1c2ccncc2c(C)c2c1[nH]c1ccccc12 [ELLIPTECINE] | > 10 | 10 (≈ 2.46 µg/mL) | 1.13 | > 10 | > 10 | 10 (≈ 2.46 µg/mL) | > 10 | > 10
23 | CC1=C2C(=CC(C)(C)[C@@H]2O)C(=O)[C@](C)(O)C12CC2 [ILLUDIN M] | > 10 | > 10 | 0.114 | > 10 | > 10 | > 10 | > 10 | > 10
24 | CC1(C)CCC2=C(O1)c1ccccc1C(=O)C2=O [LAPACHONE] | > 10 | > 10 | > 10 | > 10 | > 10 | > 10 | > 10 | > 10
25 | COc1cc2cc(c1Cl)N(C)C(=O)C[C@H](OC(=O)[C@H](C)N(C)C(C)=O)[C@]1(C)O[C@H]1[C@H](C)[C@@H]1C[C@@](O)(NC(=O)O1)[C@H](OC)/C=C/C=C(\C)C2 [MAYTANSINE] | > 10 | 0.625 (≈ 0.433 µg/mL) | > 10 | > 10 | > 10 | > 10 | > 10 | > 10
26 | CC1OC(CC(=O)O)CC2=C1C(=O)c1c(O)cccc1C2=O (centres undefined) [NANAOMYCIN] | > 10 | 1.25 (≈ 0.378 µg/mL) | 0.188 | > 10 | > 10 | 0.312 (≈ 0.0945 µg/mL) | 0.625 (≈ 0.189 µg/mL) | > 10
27 | C=C(C)[C@H]1Cc2c(ccc3c2O[C@@H]2COc4cc(OC)c(OC)cc4[C@@H]2C3=O)O1 [ROTENONE] | > 10 | 10 (≈ 3.94 µg/mL) | > 10 | > 10 | > 10 | > 10 | > 10 | > 10
